Reference: patent publication US6355799B1, “Substituted benzene compounds, process for their preparation, and herbicidal and defoliant compositions containing them” (ISK Americas Incorporated, priority 1997, dated 2002)

Experiments:
Format in all cases: in vivo
[1] = tested on: redroot pigweed (Amaranthus retroflexus, AMARE); assay: Pre-emerge test, greenhouse herbicide activity screening; details: phytotoxicity rating 0-100, 14 days after application
Procedure, shortened: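 Sandy loam pots; pre-emerge: sown 1 d pre-spray, surface-watered after, then bottom-watered. Post-emerge: sown 8–21 d before, 2–3 leaf stage, + 0.25% v/v NIS, bottom-watered. Acetone, 187 l/ha track spray, 15–1000 g ai/ha. 0–100 injury score, day 14.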

[2] = tested on: barnyardgrass (Echinochloa crus-galli, ECHCG); assay: as above; details: phytotoxicity rating 0-100, 14 days after application
Procedure, shortened: (§1)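 Compounds in acetone were track-sprayed at 15–1000 g ai/ha: pre-emergence onto soil sown the previous day, then top-watered to incorporate and later bottom-watered; post-emergence onto 2–3 leaf plants with 0.25% v/v surfactant, bottom-watered only. Ratings on a 0–100 phytotoxicity scale were taken at day 14.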

[3] = tested on: green foxtail (Setaria viridis, SETVI); assay: as above; details: phytotoxicity rating 0-100, 14 days after application
Procedure, shortened: as §1

[4] = tested on: ivyleaf morningglory (Ipomoea hederacea, IPOHE); assay: as above; details: phytotoxicity rating 0-100, 14 days after application
Procedure, shortened: as §1

[5] = tested on: johnsongrass (Sorghum halepense, SORHA); assay: as above; details: phytotoxicity rating 0-100, 14 days after application
Procedure, shortened: as §1

[6] = tested on: lambsquarters (Chenopodium album, CHEAL); assay: as above; details: phytotoxicity rating 0-100, 14 days after application
Procedure, shortened: as §1

[7] = tested on: large crabgrass (Digitaria sanguinalis, DIGSA); assay: as above; details: phytotoxicity rating 0-100, 14 days after application
Procedure, shortened: as §1

[8] = tested on: sicklepod (Cassia obtusifolia, CASOB); assay: as above; details: phytotoxicity rating 0-100, 14 days after application
Procedure, shortened: as §1

[9] = tested on: velvetleaf (Abutilon theophrasti, ABUTH); assay: as above; details: phytotoxicity rating 0-100, 14 days after application
Procedure, shortened: as §1

[10] = tested on: field corn (Zea mays L., var. Dekalb 535, CORN); assay: Pre-emerge test, crop safety; details: crop damage rating 0-100, 14 days after application
Procedure, shortened: (§2)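 Visual ratings on a 0-100 scale (0 no damage, 100 all plants dead) were taken at 14 days after treatment. Rates of 15-1000 g ai/ha in acetone, 187 l/ha, were sprayed onto soil one day after planting (pre-emerge) or onto 2-3 leaf plants with 0.25% v/v surfactant (post-emerge).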

[11] = tested on: upland rice (Oryza sp., var. Tebonnet, RICE); assay: Pre-emerge test, crop safety; details: crop damage rating 0-100, 14 days after application
Procedure, shortened: as §2

[12] = tested on: barnyardgrass (Echinochloa crus-galli, ECHCG); assay: Post-emerge test, greenhouse herbicide activity screening; details: post-emerge, 14 days after application, rating scale 0-100
Procedure, shortened: (§3)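 Herbicidal damage is scored 0 (none) to 100 (complete plant death) two weeks after a simulated field spray. Rates span 15–1000 g ai/ha, delivered in acetone at 187 l/ha. For post-emergence treatments, plants have 2–3 leaves and the spray carries 0.25% v/v non-ionic surfactant.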

[13] = tested on: green foxtail (Setaria viridis, SETVI); assay: as above; details: post-emerge, 14 days after application, rating scale 0-100
Procedure, shortened: as §3

[14] = tested on: ivyleaf morningglory (Ipomoea hederacea, IPOHE); assay: as above; details: post-emerge, 14 days after application, rating scale 0-100
Procedure, shortened: as §3

[15] = tested on: johnsongrass (Sorghum halepense, SORHA); assay: as above; details: post-emerge, 14 days after application, rating scale 0-100
Procedure, shortened: as §3

[16] = tested on: lambsquarters (Chenopodium album, CHEAL); assay: as above; details: post-emerge, 14 days after application, rating scale 0-100
Procedure, shortened: as §3

[17] = tested on: large crabgrass (Digitaria sanguinalis, DIGSA); assay: as above; details: post-emerge, 14 days after application, rating scale 0-100
Procedure, shortened: as §3

[18] = tested on: redroot pigweed (Amaranthus retroflexus, AMARE); assay: as above; details: post-emerge, 14 days after application, rating scale 0-100
Procedure, shortened: as §3

[19] = tested on: sicklepod (Cassia obtusifolia, CASOB); assay: as above; details: post-emerge, 14 days after application, rating scale 0-100
Procedure, shortened: as §3

[20] = tested on: velvetleaf (Abutilon theophrasti, ABUTH); assay: as above; details: post-emerge, 14 days after application, rating scale 0-100
Procedure, shortened: as §3

[21] = tested on: field corn (Zea mays L., var. Dekalb 535, CORN); assay: Post-emerge test, crop safety; details: post-emerge, 14 days after application, rating scale 0-100
Procedure, shortened: (§4)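 Rating: 0–100 visual injury, 14 DAA. Application: acetone, 187 l/ha, 15–1000 g ai/ha, flat-fan track sprayer with nozzle 40–45 cm above soil or canopy. Post-emerge runs used 0.25% v/v surfactant on 2–3 leaf plants.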

[22] = tested on: upland rice (Oryza sp., var. Tebonnet, RICE); assay: Post-emerge test, crop safety; details: post-emerge, 14 days after application, rating scale 0-100
Procedure, shortened: as §4

## CCOC(=O)COc1c(Cl)cc(F)c(-n2c(=O)cc(C(F)(F)F)n(C)c2=O)c1NC(=O)C=Cc1ccccc1 [2-190]
[1]; 63 g ai/ha
  Pre-emerge Herbicidal Activity AMARE: 95
[1]; 250 g ai/ha
  Pre-emerge Herbicidal Activity AMARE: 100
[2]; 63 g ai/ha
  Pre-emerge Herbicidal Activity ECHCG: 0
[2]; 250 g ai/ha
  Pre-emerge Herbicidal Activity ECHCG: 0
[3]; 63 g ai/ha
  Pre-emerge Herbicidal Activity SETVI: 0
[3]; 250 g ai/ha
  Pre-emerge Herbicidal Activity SETVI: 30
[4]; 63 g ai/ha
  Pre-emerge Herbicidal Activity IPOHE: 0
[4]; 250 g ai/ha
  Pre-emerge Herbicidal Activity IPOHE: 90
[5]; 63 g ai/ha
  Pre-emerge Herbicidal Activity SORHA: 0
[5]; 250 g ai/ha
  Pre-emerge Herbicidal Activity SORHA: 0
[6]; 63 g ai/ha
  Pre-emerge Herbicidal Activity CHEAL: 100
[6]; 250 g ai/ha
  Pre-emerge Herbicidal Activity CHEAL: 100
[7]; 63 g ai/ha
  Pre-emerge Herbicidal Activity DIGSA: 0
[7]; 250 g ai/ha
  Pre-emerge Herbicidal Activity DIGSA: 30
[8]; 63 g ai/ha
  Pre-emerge Herbicidal Activity CASOB: 30
[8]; 250 g ai/ha
  Pre-emerge Herbicidal Activity CASOB: 70
[9]; 63 g ai/ha
  Pre-emerge Herbicidal Activity ABUTH: 100
[9]; 250 g ai/ha
  Pre-emerge Herbicidal Activity ABUTH: 100
[10]; 63 g ai/ha
  Pre-emerge Herbicidal Activity CORN: 0
[10]; 250 g ai/ha
  Pre-emerge Herbicidal Activity CORN: 0
[11]; 63 g ai/ha
  Pre-emerge Herbicidal Activity RICE: 10
[11]; 250 g ai/ha
  Pre-emerge Herbicidal Activity RICE: 20
[12]; 63 g ai/ha
  ECHCG phytotoxicity rating: 0
[12]; 250 g ai/ha
  phytotoxicity rating ECHCG: 10
[13]; 63 g ai/ha
  SETVI phytotoxicity rating: 0
[13]; 250 g ai/ha
  phytotoxicity rating SETVI: 0
[14]; 63 g ai/ha
  IPOHE phytotoxicity rating: 50
[14]; 250 g ai/ha
  phytotoxicity rating IPOHE: 90
[15]; 63 g ai/ha
  SORHA phytotoxicity rating: 0
[15]; 250 g ai/ha
  phytotoxicity rating SORHA: 50
[16]; 63 g ai/ha
  CHEAL phytotoxicity rating: 90
[16]; 250 g ai/ha
  phytotoxicity rating CHEAL: 100
[17]; 63 g ai/ha
  DIGSA phytotoxicity rating: 0
[17]; 250 g ai/ha
  phytotoxicity rating DIGSA: 0
[18]; 63 g ai/ha
  AMARE phytotoxicity rating: 95
[18]; 250 g ai/ha
  phytotoxicity rating AMARE: 99
[19]; 63 g ai/ha
  CASOB phytotoxicity rating: 20
[19]; 250 g ai/ha
  phytotoxicity rating CASOB: 80
[20]; 63 g ai/ha
  ABUTH phytotoxicity rating: 90
[20]; 250 g ai/ha
  phytotoxicity rating ABUTH: 90
[21]; 63 g ai/ha
  CORN phytotoxicity rating (crop damage): 5
[21]; 250 g ai/ha
  phytotoxicity rating CORN (crop damage): 10
[22]; 63 g ai/ha
  RICE phytotoxicity rating (crop damage): 0
[22]; 250 g ai/ha
  phytotoxicity rating RICE (crop damage): 5
